In article PMC10046946, “Novel Phthalic-Based Anticancer Tyrosine Kinase Inhibitors: Design, Synthesis and Biological Activity” (Current Issues in Molecular Biology, 2023):
One block for each compound: values may come before it.

Tests used:
[1] = tested on: K562 (chronic myelogenous leukemia); assay: MTT cell proliferation assay, K562; type: cell-based; conditions: Homo sapiens, K562, 72 h of exposition, read-out: Anti-proliferative activity IC50, K562
Experimental: (§1) Tests to determine the effects of the synthesized compounds on cell viability and the half-maximal inhibitory concentration (IC50) were performed using the MTT assay, as described in our prior work.
(§2) The target compounds 5, 6, 8–12, 14, 15, 17–22 and 24–26 were tested for antiproliferative activity against six cancer cell lines: K562 (chronic myelogenous leukemia), HL-60 (promyelocytic leukemia), MCF-7 (breast adenocarcinoma), HepG2 (human liver cancer), A549 (lung carcinoma) and OKP-GS (renal cell carcinoma). The RPMI 1788 cells (B lymphocyte, human) were used as a control to evaluate the system toxicity of the studied compounds to normal cells. Sorafenib, nilotinib and lapatinib were utilized as reference standards for comparison.

EGFR = target: T1, EGFR (Homo sapiens, UniProt P00533); assay: ADP-Glo kinase assay, EGFR; type: biochemical
T1 construct: purchased Promega

[2] = tested on: MCF-7 (breast adenocarcinoma); assay: MTT cell proliferation assay, MCF-7; type: cell-based; conditions: Homo sapiens, MCF7, MCF-7, 72 h of exposition, read-out: Anti-proliferative activity IC50, MCF-7
Experimental: as §1, §2

[3] = tested on: OKP-GS (renal cell carcinoma); assay: MTT cell proliferation assay, OKP-GS; type: cell-based; conditions: 72 h of exposition, read-out: Anti-proliferative activity IC50, OKP-GS
Experimental: as §1, §2

HER4 = target: T2, HER4 (Homo sapiens, UniProt Q15303); assay: ADP-Glo kinase assay, HER4; type: biochemical
T2 construct: purchased Promega
Experimental: (§3) The ADP-Glo kinase assay (Promega, Madison, WI, USA) was used to screen compounds 5, 8–10, 14, 17, 19 and 24 for the tyrosine kinase (Kinase Selectivity Profiling System TK-1, Promega, Madison, WI, USA) and serine/threonine kinase (Kinase Selectivity Profiling System Other/CK-1, Promega, Madison, WI, USA) inhibition effects according to the manufacturer’s technical manual. The luminescence data were analyzed as described in our prior work.
(§4) The selectivity of the potential kinase inhibitor against a specific protein kinase or a specific family of kinases was investigated using the Kinase Selectivity Profiling System TK-1, Other/CK-1 and ADP-Glo™ Kinase assay kit (Promega, Madison, WI, USA).

[4] = tested on: HL-60 (promyelocytic leukemia); assay: MTT cell proliferation assay, HL-60; type: cell-based; conditions: Homo sapiens, HL-60, 72 h of exposition, read-out: Anti-proliferative activity IC50, HL-60
Experimental: as §1, §2

Aurora A = target: T3, Aurora A (Homo sapiens, UniProt O14965); assay: ADP-Glo kinase assay, Aurora A; type: biochemical
T3 construct: purchased Promega
T3 sequence (O14965 1-403): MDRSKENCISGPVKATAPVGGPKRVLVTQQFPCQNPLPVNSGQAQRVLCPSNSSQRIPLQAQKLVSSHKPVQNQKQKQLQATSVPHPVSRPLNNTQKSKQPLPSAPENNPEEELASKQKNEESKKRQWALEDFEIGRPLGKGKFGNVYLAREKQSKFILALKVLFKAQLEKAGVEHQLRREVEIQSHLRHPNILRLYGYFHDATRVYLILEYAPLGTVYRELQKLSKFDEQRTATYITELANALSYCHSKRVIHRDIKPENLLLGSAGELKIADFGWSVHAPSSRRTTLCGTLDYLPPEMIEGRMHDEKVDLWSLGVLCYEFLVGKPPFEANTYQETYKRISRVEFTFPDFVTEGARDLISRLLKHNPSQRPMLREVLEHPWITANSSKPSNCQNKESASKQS
Experimental: as §3, §4

InsR (insulin receptor) = target: T4, InsR (insulin receptor) (Homo sapiens, UniProt P06213); assay: ADP-Glo kinase assay, InsR; type: biochemical
T4 construct: purchased Promega
T4 sequence (P06213 28-1382): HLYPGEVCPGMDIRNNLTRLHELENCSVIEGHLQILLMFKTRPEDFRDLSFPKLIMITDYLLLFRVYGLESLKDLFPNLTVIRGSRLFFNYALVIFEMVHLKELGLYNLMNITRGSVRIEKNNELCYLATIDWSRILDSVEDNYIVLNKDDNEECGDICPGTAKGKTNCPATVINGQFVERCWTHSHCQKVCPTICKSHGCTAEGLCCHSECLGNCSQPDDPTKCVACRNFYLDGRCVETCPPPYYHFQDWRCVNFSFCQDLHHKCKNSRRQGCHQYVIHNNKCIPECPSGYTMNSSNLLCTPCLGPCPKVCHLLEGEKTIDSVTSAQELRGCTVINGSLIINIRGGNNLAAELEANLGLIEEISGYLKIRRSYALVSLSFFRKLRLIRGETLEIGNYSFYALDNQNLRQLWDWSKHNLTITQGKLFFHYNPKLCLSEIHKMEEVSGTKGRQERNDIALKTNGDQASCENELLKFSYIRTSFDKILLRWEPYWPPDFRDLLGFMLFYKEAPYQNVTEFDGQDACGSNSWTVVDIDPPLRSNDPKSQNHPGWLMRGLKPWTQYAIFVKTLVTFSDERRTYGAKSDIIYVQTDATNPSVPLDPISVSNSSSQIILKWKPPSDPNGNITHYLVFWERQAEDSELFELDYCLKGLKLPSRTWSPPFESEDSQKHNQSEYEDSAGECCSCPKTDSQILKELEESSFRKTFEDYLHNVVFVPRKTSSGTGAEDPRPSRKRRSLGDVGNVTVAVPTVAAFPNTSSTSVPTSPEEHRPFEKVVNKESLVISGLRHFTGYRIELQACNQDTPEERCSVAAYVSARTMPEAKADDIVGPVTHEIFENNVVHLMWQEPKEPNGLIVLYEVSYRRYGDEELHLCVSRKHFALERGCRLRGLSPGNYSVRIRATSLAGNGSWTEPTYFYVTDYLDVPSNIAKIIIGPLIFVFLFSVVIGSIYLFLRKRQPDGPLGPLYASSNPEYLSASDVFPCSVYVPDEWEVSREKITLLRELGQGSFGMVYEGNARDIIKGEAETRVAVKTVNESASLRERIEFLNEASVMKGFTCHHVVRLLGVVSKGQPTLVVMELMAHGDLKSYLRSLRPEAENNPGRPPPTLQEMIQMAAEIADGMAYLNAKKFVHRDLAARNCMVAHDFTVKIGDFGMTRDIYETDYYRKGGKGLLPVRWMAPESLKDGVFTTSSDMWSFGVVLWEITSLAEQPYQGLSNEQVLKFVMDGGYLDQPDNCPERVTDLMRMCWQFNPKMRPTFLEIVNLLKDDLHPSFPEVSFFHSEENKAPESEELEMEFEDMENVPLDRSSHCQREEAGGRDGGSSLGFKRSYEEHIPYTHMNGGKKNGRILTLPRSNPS
Experimental: as §3, §4

HER2 = target: T5, HER2 (Homo sapiens, UniProt P04626); assay: ADP-Glo kinase assay, HER2; type: biochemical
T5 construct: purchased Promega
Experimental: as §3, §4

[5] = tested on: RPMI 1788 cells (B lymphocyte, human); assay: MTT cell proliferation assay, normal RPMI 1788 cells; type: cell-based; conditions: normal human lymphoblastoid cells RPMI 1788, 72 h of exposition, read-out: Anti-proliferative activity IC50, RPMI 1788
Experimental: as §1, §2

A549 (lung carcinoma) = assay: MTT cell proliferation assay, A549; type: cell-based; conditions: Homo sapiens, A549, 72 h of exposition, read-out: Anti-proliferative activity IC50, A549
Experimental: as §1, §2

[6] = target: T6, IGF1R (insulin-like growth factor 1 receptor) (Homo sapiens, UniProt P08069); assay: ADP-Glo kinase assay, IGF1R; type: biochemical
T6 construct: purchased Promega
T6 sequence (P08069 31-1367): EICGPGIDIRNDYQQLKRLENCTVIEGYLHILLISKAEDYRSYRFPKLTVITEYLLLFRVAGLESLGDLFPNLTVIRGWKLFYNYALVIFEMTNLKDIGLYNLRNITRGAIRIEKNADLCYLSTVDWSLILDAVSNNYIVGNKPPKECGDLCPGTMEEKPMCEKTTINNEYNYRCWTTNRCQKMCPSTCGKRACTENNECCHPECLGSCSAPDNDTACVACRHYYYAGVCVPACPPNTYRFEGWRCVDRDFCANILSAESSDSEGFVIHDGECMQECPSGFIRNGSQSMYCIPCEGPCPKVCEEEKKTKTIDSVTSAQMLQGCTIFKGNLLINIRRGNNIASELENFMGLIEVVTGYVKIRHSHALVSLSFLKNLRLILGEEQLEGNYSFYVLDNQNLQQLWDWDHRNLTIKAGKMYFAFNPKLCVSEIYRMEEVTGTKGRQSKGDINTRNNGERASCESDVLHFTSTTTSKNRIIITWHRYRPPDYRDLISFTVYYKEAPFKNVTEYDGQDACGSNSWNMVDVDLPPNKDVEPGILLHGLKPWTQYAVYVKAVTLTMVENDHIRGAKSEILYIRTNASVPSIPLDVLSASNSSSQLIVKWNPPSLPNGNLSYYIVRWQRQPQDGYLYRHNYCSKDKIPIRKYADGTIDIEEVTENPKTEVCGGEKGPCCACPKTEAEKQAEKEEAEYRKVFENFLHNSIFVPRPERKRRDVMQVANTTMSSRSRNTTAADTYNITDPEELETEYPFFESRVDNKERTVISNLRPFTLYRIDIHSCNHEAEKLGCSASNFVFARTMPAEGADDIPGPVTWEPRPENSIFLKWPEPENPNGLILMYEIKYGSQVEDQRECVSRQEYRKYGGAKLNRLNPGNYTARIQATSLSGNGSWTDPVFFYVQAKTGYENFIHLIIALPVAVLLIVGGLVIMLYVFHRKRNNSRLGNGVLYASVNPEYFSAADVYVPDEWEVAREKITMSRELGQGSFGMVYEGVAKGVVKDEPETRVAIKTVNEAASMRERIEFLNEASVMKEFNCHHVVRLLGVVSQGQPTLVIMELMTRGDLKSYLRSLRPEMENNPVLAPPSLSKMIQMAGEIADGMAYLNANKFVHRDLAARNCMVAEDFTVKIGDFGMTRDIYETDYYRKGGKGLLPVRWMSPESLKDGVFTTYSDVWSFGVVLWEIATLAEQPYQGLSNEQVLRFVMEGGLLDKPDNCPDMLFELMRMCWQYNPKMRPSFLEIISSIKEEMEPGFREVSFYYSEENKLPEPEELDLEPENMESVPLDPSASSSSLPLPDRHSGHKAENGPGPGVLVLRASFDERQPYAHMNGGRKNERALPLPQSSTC
Experimental: as §3, §4

Aurora B = target: T7, Aurora B (Homo sapiens, UniProt Q96GD4); assay: ADP-Glo kinase assay, Aurora B; type: biochemical
T7 construct: purchased Promega
Experimental: as §3, §4

PDGFRβ = target: T8, PDGFRβ (Homo sapiens, UniProt P09619); assay: ADP-Glo kinase assay, PDGFRβ; type: biochemical
T8 construct: purchased Promega
T8 sequence (P09619 33-1106): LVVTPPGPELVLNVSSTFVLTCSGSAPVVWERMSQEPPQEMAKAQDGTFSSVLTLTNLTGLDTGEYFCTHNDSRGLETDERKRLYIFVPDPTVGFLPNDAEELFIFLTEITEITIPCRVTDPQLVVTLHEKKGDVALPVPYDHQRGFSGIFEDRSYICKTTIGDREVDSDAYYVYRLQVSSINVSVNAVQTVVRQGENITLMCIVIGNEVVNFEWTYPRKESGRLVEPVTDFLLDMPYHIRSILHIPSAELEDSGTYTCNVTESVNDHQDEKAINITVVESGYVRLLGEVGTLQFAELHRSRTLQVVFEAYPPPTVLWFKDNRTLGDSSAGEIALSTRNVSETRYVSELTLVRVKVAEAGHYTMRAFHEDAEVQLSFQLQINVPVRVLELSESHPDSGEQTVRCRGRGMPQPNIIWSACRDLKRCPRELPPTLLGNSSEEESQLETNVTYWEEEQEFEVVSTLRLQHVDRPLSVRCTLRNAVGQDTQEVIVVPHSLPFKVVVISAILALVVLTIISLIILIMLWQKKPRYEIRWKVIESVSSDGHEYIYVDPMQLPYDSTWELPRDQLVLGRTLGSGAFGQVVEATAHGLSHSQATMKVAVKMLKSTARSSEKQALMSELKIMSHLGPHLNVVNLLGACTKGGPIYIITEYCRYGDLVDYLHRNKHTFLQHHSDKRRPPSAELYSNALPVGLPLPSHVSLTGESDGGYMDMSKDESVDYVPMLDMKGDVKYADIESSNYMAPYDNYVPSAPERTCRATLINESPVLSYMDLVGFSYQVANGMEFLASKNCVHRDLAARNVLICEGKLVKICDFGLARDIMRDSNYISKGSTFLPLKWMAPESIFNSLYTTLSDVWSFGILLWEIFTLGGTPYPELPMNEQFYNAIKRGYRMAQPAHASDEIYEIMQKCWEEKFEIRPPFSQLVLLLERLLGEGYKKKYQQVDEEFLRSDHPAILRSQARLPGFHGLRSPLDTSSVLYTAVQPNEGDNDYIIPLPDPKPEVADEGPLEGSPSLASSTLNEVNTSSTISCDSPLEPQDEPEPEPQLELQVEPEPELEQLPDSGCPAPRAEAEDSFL
Experimental: as §3, §4

PDGFRα = target: T9, PDGFRα (Homo sapiens, UniProt P16234); assay: ADP-Glo kinase assay, PDGFRα; type: biochemical
T9 construct: purchased Promega
Experimental: as §3, §4

[7] = tested on: HepG2 (human liver cancer); assay: MTT cell proliferation assay, HepG2; type: cell-based; conditions: Homo sapiens, HepG2, 72 h, HepG2, 72 h of exposition, read-out: Anti-proliferative activity IC50, HepG2
Experimental: as §1, §2

KDR (VEGFR-2) = target: T10, KDR (VEGFR-2) (Homo sapiens, UniProt P35968); assay: ADP-Glo kinase assay, KDR; type: biochemical
T10 construct: purchased Promega
T10 sequence (P35968 20-1356): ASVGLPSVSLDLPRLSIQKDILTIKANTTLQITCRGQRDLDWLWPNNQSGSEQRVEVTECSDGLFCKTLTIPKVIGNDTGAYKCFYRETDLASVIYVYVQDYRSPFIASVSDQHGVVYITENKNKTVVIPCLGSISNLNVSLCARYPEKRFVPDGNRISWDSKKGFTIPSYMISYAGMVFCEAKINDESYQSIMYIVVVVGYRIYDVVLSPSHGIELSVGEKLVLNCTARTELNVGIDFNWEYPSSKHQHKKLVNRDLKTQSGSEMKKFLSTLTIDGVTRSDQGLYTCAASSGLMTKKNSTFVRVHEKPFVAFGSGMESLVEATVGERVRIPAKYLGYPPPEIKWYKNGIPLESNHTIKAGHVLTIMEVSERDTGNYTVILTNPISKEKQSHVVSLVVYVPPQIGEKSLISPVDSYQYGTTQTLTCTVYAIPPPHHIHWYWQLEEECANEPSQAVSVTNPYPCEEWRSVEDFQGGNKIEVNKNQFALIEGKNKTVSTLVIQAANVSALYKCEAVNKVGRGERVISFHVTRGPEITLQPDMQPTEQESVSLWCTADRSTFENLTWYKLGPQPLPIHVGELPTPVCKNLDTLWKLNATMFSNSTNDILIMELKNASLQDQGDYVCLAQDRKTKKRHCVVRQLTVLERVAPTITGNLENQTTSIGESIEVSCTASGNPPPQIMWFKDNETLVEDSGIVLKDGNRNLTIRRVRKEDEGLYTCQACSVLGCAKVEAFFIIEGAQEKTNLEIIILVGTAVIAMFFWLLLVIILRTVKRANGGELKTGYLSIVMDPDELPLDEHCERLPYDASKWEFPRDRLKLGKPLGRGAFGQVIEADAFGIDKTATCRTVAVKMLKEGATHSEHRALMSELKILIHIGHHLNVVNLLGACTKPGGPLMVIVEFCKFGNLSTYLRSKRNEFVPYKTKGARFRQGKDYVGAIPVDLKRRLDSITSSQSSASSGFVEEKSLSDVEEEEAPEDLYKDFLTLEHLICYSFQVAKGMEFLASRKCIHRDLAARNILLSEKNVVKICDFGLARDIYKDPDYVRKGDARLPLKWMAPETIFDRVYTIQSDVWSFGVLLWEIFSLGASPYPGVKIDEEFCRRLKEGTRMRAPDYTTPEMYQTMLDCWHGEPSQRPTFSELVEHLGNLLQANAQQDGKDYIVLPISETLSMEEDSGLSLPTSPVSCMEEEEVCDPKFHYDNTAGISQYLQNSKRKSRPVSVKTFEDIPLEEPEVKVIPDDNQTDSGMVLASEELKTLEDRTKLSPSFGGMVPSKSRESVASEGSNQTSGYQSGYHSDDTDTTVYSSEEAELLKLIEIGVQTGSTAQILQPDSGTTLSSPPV

Compound: O=C(Nc1cccc(C(F)(F)F)c1)c1cccc(C(=O)N2CCN(C(=O)c3cccc(F)c3)CC2)c1 [Compound 9, 3-(4-(3-Fluorobenzoyl)piperazine-1-carbonyl)-N-(3-(trifluoromethyl)phenyl)benzamide]
IC50 [1]: 21 ± 0.59 µM
inhibition at 10 µM (EGFR): 90%
melting point: 97 to 101 °C
IC50 [2]: 26.3 ± 3.71 µM
IC50 [3]: > 50 µM
inhibition at 10 µM (HER4): 37%
IC50 [4]: 21.9 ± 1.59 µM
inhibition at 10 µM (Aurora A): 0%
inhibition at 10 µM (InsR (insulin receptor)): 0%
inhibition at 10 µM (HER2): 64%
IC50 [5]: 26.3 ± 1.88 µM
IC50 (A549 (lung carcinoma)): > 50 µM
inhibition at 10 µM [6]: 0%
inhibition at 10 µM (Aurora B): 0%
inhibition at 10 µM (PDGFRβ): 24%
inhibition at 10 µM (PDGFRα): 20%
IC50 [7]: 33.3 ± 3.45 µM
inhibition at 10 µM (KDR (VEGFR-2)): 33%

Compound: Cc1cn(-c2cc(NC(=O)c3cccc(C(=O)Nc4cc(-n5cnc(C)c5)cc(C(F)(F)F)c4)c3)cc(C(F)(F)F)c2)cn1 [Compound 10, N1,N3-bis(3-(4-methyl-1H-imidazol-1-yl)-5-(trifluoromethyl)phenyl)isophthalamide]
IC50 [1]: 26 ± 2.38 µM
inhibition at 10 µM (EGFR): 1%
melting point: 304 to 306 °C
IC50 [2]: 38.5 ± 1.95 µM
IC50 [3]: 13.2 ± 1.3 µM
inhibition at 10 µM (HER4): 0%
IC50 [4]: 35.8 ± 3.19 µM
inhibition at 10 µM (Aurora A): 0%
inhibition at 10 µM (InsR (insulin receptor)): 0%
inhibition at 10 µM (HER2): 19%
IC50 [5]: 13 ± 0.3 µM
IC50 (A549 (lung carcinoma)): > 50 µM
inhibition at 10 µM [6]: 0%
inhibition at 10 µM (Aurora B): 0%
inhibition at 10 µM (PDGFRβ): 0%
inhibition at 10 µM (PDGFRα): 17%
IC50 [7]: 23.2 ± 1.81 µM
inhibition at 10 µM (KDR (VEGFR-2)): 33%

Compound: COc1ccc(C(=O)N2CCN(C(=O)c3ccc(C(=O)Nc4cccc(C(F)(F)F)c4)cc3)CC2)cc1 [Compound 19, 4-(4-(4-Methoxybenzoyl)piperazine-1-carbonyl)-N-(3-(trifluoromethyl)phenyl)benzamide]
IC50 [1]: > 50 µM
inhibition at 10 µM (EGFR): 4%
melting point: 202 to 205 °C
IC50 [2]: > 50 µM
IC50 [3]: > 50 µM
inhibition at 10 µM (HER4): 2%
IC50 [4]: > 50 µM
inhibition at 10 µM (InsR (insulin receptor)): 17%
inhibition at 10 µM (HER2): 39%
IC50 [5]: > 50 µM
IC50 (A549 (lung carcinoma)): > 50 µM
inhibition at 10 µM [6]: 0%
inhibition at 10 µM (PDGFRβ): 20%
inhibition at 10 µM (PDGFRα): 19%
IC50 [7]: > 50 µM
inhibition at 10 µM (KDR (VEGFR-2)): 16%

Compound: CCN(CC)CCNC(=O)c1c(C)[nH]c(/C=C2\C(=O)Nc3ccc(F)cc32)c1C [Sunit., sunitinib, reference compound]
inhibition at 10 µM (Aurora A): 68%
inhibition at 10 µM (Aurora B): 90%

The remaining compounds from weak to strong by IC50 [1], led by results:

IC50 [1]: 18.3 ± 1.15 µM
inhibition at 10 µM (EGFR): 14%
melting point: 145 to 147 °C
IC50 [2]: 24.7 ± 5.95 µM
IC50 [3]: > 50 µM
inhibition at 10 µM (HER4): 0%
IC50 [4]: 18.2 ± 1.02 µM
inhibition at 10 µM (Aurora A): 0%
inhibition at 10 µM (InsR (insulin receptor)): 6%
inhibition at 10 µM (HER2): 0%
IC50 (A549 (lung carcinoma)): > 50 µM
inhibition at 10 µM [6]: 0%
inhibition at 10 µM (Aurora B): 0%
inhibition at 10 µM (PDGFRβ): 0%
inhibition at 10 µM (PDGFRα): 0%
IC50 [7]: 35.49 ± 0.34 µM
inhibition at 10 µM (KDR (VEGFR-2)): 34%
Compound: O=C(Nc1cccc(C(F)(F)F)c1)c1cccc(C(=O)N2CCN(C(=O)c3ccccc3F)CC2)c1 [Compound 8, 3-(4-(2-Fluorobenzoyl)piperazine-1-carbonyl)-N-(3-(trifluoromethyl)phenyl)benzamide]
IC50 [5]: 24.9 ± 1.17 µM

IC50 [1]: 17 ± 0.2 µM
inhibition at 10 µM (EGFR): 2%
melting point: 269 to 270 °C
IC50 [2]: 15.5 ± 1.16 µM
IC50 [3]: > 50 µM
inhibition at 10 µM (HER4): 3%
IC50 [4]: 26.4 ± 3.35 µM
inhibition at 10 µM (Aurora A): 0%
inhibition at 10 µM (InsR (insulin receptor)): 0%
inhibition at 10 µM (HER2): 49%
IC50 (A549 (lung carcinoma)): > 50 µM
inhibition at 10 µM [6]: 0%
inhibition at 10 µM (Aurora B): 3%
inhibition at 10 µM (PDGFRβ): 0%
inhibition at 10 µM (PDGFRα): 0%
IC50 [7]: > 50 µM
inhibition at 10 µM (KDR (VEGFR-2)): 0%
Compound: Cc1cn(-c2cc(NC(=O)c3ccc(C(=O)Nc4cc([N+](=O)[O-])ccc4C)cc3)cc(C(F)(F)F)c2)cn1 [Compound 24, N1-(3-(4-methyl-1H-imidazol-1-yl)-5-(trifluoromethyl)phenyl)-N4-(2-methyl-5-nitrophenyl)terephthalamide]
IC50 [5]: 36.5 ± 0.86 µM
